Patent US9435738B2, “System and device for characterizing cells” (The Johns Hopkins University, priority 2011, dated 2016)

Tested on: Mouse myoblasts (c2c12)
Test: microscopy-based assay measuring cell cycle phase and cell/nuclear properties simultaneously in the same cells
Conditions: for cell cycle phase enriched / blocked by treatment: cell-cycle distribution vs control cells; for contribution to changes in nuclear size due to (uncontrolled) intrinsic changes in nuclear size in each phase / contribution to changes in nuclear size due to forced cell-cycle redistribution: population-averaged nuclear size, Eq. 2, FIG. 36 B; for time after release at which asynchronized (untreated) cell cycle distribution is recovered: release from synchronizing drug
Experimental: For each type of cell, ˜10,000 cells were plated on a glass bottom dish (World Precision Instruments, Sarasota, Fla.). After incubation for 48 h, the treatment for synchronization was applied. To serum-starve cells, cells were washed three times with Hanks' balanced salt solution (HBSS) (GBICO) and cultured in serum-free medium for 72 h. For synchronization at early S phase, cells were treated with 2 mM of thymidine for 18 h twice. Between these two treatments, cells were rinsed with HBSS three times and cultured in normal growth medium to release cell cycle for 9 h. To synchronize cells in the M phase, cells were first treated with 2 mM of thymidine for 24 h. Followed by rinsing with HBSS three times, cells were released with normal growth medium for 3 h. After the short release, cells were treated with 100 ng/ml of microtubule-depolymerizing drug nocodazole for 12 h.
Cells were fixed with 3.7% of formaldehyde (Sigma) for 15 min at room temperature (RT). After fixation, cells were permeabilized with 0.1% Triton X-100 (Sigma) for 10 min and blocked for nonspecific binding with phosphate-buffered saline (PBS) supplemented with 10% of goat serum for 30 min. Cells were incubated with specific concentration of dye diluted from stock solution for 1 h. Nuclear DNA was stained with Hoechst 33342 (Sigma) at 1:40 dilution, Cytoplasm was stained with HCS CellMask Cy5 (Invitrogen) at 1:20000 dilution. Actin was stained with Phalloidin 488 (Invitrogen) at 1:40 dilution. PBS rinse was conducted three times between each step.
Fluorescent images were collected with a Nikon DS-QiMc camera installed on a customized Nikon TE300 microscope with a 10× Plan Fluor lens (N.A. 0.3, Nikon Melville, N.Y.), a motorized stage, and motorized excitation and emission filters (Prior Scientific, Rockland, Mass.) controlled by Nikon NIS Elements. Eighty-one (9-by-9 grid) fields of views were consistently generated using the software Nikon NIS-Elements. The size of the image acquired from the camera was 1280×1024 pixels, and the pixel size was 0.57 μm for a 10× objective. Our ΔX and ΔY for image capture was 662 μm and 520 μm respectively to allow 10% overlay between adjacent fields. The total size of the scanning region (81 images) was ˜28.5 mm^2. Four different channels (UV, GFP, Cy5, and phase contrast) were collected for every field of view. The calibration glass-bottom dish contained dyes for three different fluorescent channels, UV, GFP, and Cy5. For each fluorescence channel, UV, GFP, and Cy5, two calibration images were acquired: with and without illumination. The calibration images were used to reduce the non-uniform illumination of fluorescent images. All of the phenotypic information was calculated with a custom high throughput program (written in Matlab) developed in our laboratory. Typically >1,000 cells were analyzed per different biological repeat (i.e. different cells) for a total >3,000 cells for each tested condition.
To precisely segment individual cells and nuclei, we used slightly different approaches based on the same principle. For nuclear segmentation, because of the relatively circular shape and relatively even intensity of the Hoechst stain, we filtered calibrated images (as described in the previous section) with a 23×23 pixel normalized Gaussian filter (similar scale as the size of nuclei) and an averaging filter (same size) to obtain IG (Gaussian intensity) and IM (averaged intensity). Subtracting IM from IG gives IN, the nuclear intensity values without regional background.
Because cells are larger than their nuclei, a larger size of filters was needed. However, one major limitation with spatial domain image filters is non-continuous edges. Increasing the size of the filter increases the size of this “non-trustable” region. The use of a spatial filter 2r+1 in size will lead to the loss of r+1 pixels from the edge because of incomplete information, which greatly reduces the usable image size. […]

| Structure (SMILES) | decrease in nuclear size of cells in the G0/G1 phase (10 nM for 24 h, G0/G1 phase, P<0.0001) | decrease in population-averaged cell size / nuclear size (10 nM for 24 h, population-averaged, accompanied by rounding of the nucleus) | time after release during which cell properties continued to be affected (after removing inhibitor) | cell cycle phase enriched / blocked by treatment | increase in mean cell size in the G2/M phase compared to untreated (asynchronized) cells in the same phase | change in measured cell properties caused by synchronization (compared phase-to-phase to control cells) | contribution to changes in nuclear size due to (uncontrolled) intrinsic changes in nuclear size in each phase | contribution to changes in nuclear size due to forced cell-cycle redistribution | time after release at which asynchronized (untreated) cell cycle distribution is recovered | increase in mean size of cells in the G0/G1 phase compared to untreated (asynchronized) cells in the same phase (G0/G1 phase) | mean size of treated cells in the S phase relative to mean size of untreated cells in the S phase (S phase) | increase in mean size of cells in the S phase compared to untreated cells in the same phase (S phase, after forced synchronization) |
| --- | --- | --- | --- | --- | --- | --- | --- | --- | --- | --- | --- | --- |
| CCNc1cc(N[C@H]2CC[C@H](O)CC2)nc(Nc2ccc3c(ccn3Cc3ccccc3)c2)n1 [Cdk4/6 inhibitor IV, trans-4-((6-(ethylamino)-2-((1-(phenylmethyl)-1H-indol-5-yl)amino)-4-pyrimidinyl)amino)-cyclohexanol] | > 50% | ~50% | up to 6 h | blocked cells in the G0/G1 phase |  |  |  |  |  |  |  |  |
| COC(=O)Nc1nc2ccc(C(=O)c3cccs3)cc2[nH]1 [nocodazole] |  |  |  | M phase | 75% | > 30% | 41% | 35% | 24 h |  |  |  |
| Cc1cn([C@H]2C[C@H](O)[C@@H](CO)O2)c(=O)[nH]c1=O [thymidine] |  |  |  | S phase | 220% |  | 91% | 9% | 24 h | 130% | 2.2 times | 120% |
